This is an account of results in patent US12365928B2, “Scalable biosynthesis of the seaweed neurochemical kainic acid” (The Regents of the University of California, priority 2018, dated 2025).

In one series the target is T1, DsKabA (Digenea simplex, UniProt A0A4D6IA24).
T1 construct: DsKabA p28 For; His6 (N); made in house; host or cells: E. coli BL-21
T1 sequence (A0A4D6IA24 1-439): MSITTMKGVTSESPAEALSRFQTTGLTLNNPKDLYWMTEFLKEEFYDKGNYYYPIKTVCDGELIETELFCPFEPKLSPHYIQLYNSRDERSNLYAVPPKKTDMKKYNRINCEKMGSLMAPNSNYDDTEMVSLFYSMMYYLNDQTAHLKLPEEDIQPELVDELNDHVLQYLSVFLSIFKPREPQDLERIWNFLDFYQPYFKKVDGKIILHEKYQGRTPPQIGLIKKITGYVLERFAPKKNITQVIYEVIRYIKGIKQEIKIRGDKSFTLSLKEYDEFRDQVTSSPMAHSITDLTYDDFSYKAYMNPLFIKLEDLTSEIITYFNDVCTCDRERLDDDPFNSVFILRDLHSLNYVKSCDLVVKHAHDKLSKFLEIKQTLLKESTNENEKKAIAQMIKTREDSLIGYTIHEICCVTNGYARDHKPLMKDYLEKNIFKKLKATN
Briefly: DsKabA activity and substrate specificity assay (LCMS). To be noted: 23° C., 5 h, LCMS (FIG. 8); for turnover to N-prenylated product when L-glutamate is exchanged for another amino acid: 5 mM amino acid, 1 mM DMAPP, 5 mM MgCl2, 20 μM DsKabA. It is filed as biochemical.

For series [1], the system named is ionotropic glutamate receptor (iGluR). Conditions: literature statement; cited from earlier work.
The conditions of series [2]: humans in vivo; literature statement; cited from earlier work.

Entries after “also recorded” stand apart in the source; their conditions may differ.

Description for DsKabA: To test DsKabA activity and substrate specificity, a 50 μL reaction containing 5 mM MgCl2, 5 mM amino acid (L-Glu, D-Glu, L-Gln, L-Asp, L-Asn, or Gly), 1 mM prenyl donor (DMAPP or GPP), and 20 μM DsKabA in a buffer of 300 mM KCl and 50 mM HEPES pH 8.0 was incubated at 23° C. for 5 h. One equivalent of 0.1% formic acid in H2O was added and filtered with a VWR PES 3 k 500 μL spin column. The flow through was analyzed by an Agilent Technologies 1200 Series system with a diode-array detector coupled to an Agilent Technologies 6530 accurate-mass Q-TOF LCMS using the following method on a Synergi Polar-RP 4μ 250×4.6 mm column at 0.75 mL/min: 0% B (4.5 min), 0 to 5% B (0.5 min), 5 to 26% B (9 min), 26 to 80% B (9 min), 80 to 100% B (1 min), 100% B (1.5 min), 100 to 0% B (2.5 min), 0% B (2 min), wherein A=0.1% aqueous formic acid, and B=0.1% formic acid in acetonitrile.

Take `N[C@H](CCC(=O)O)C(=O)O` [D-glutamate]: at DsKabA, the “turnover to N-prenylated product when L-glutamate is exchanged for another amino acid” value was “diminished turnover”. As to `CC(C)=CCC/C(C)=C/COP(=O)(O)OP(=O)(O)O` [GPP], the “product formed when DMAPP is replaced by another prenyl donor” value at DsKabA (1 mM prenyl donor with 5 mM L-glutamate, 20 μM DsKabA) is reported as “formation of N-geranyl-L-glutamic acid (L-NGG)”. With `NC(=O)C[C@H](N)C(=O)O` [L-asparagine], the “turnover to N-prenylated product when L-glutamate is exchanged for another amino acid” value at DsKabA is “did not produce appreciable amounts of N-prenylated product”.

For `N[C@@H](CC(=O)O)C(=O)O` [L-aspartate], the “turnover to N-prenylated product when L-glutamate is exchanged for another amino acid” value at DsKabA is “did not produce appreciable amounts of N-prenylated product”.

Take `NC(=O)CC[C@H](N)C(=O)O` [L-glutamine]: the “turnover to N-prenylated product when L-glutamate is exchanged for another amino acid” value on DsKabA is recorded as “did not produce appreciable amounts of N-prenylated product”. As for `O=C(O)C[C@@H]1[C@@H](C(=O)O)NC[C@@H]1c1ccc(C(=O)O)[nH]c1=O` [acromelic acid], the iGluR bioactivity result in series [1] is “iGluR agonistic bioactivity”.

For the molecule `C/C(=C/C=C/[C@@H](C)C(=O)O)[C@H]1CN[C@H](C(=O)O)[C@H]1CC(=O)O` [domoic acid], in series [2], the “excitotoxic / neurological effects” value was “causes severe neurological problems”.

Take `NCC(=O)O` [glycine]: the “turnover to N-prenylated product when L-glutamate is exchanged for another amino acid” value at DsKabA is reported as “did not produce appreciable amounts of N-prenylated product”.

As for `C=C(C)[C@H]1CN[C@H](C(=O)O)[C@H]1CC(=O)O` [kainic acid], the iGluR bioactivity entry in series [1] is “ionotropic glutamate receptor (iGluR) agonist; also recorded: agonistic activity”. Further, the “excitotoxic / neurological effects” value in series [2] is given as “does not appear to produce excitotoxic effects”. Regarding kainic acid lactone, in series [1], the iGluR bioactivity entry is recorded as “iGluR antagonist”.
